Data on 61 compounds can be found in a melting point compilation (Tetko et al.; mined from patent text by program, amines drawn as free bases though some values may be those of a salt).

For orientation: melting point means the temperature, or range, at which the solid turns liquid. The compound `O=C(O)C1Cc2cc3c(-c4ccccc4)noc3c(Cl)c2O1` (stereo unspecified) came in with a melting point of 214 to 215 °C.

Turning to `CC12CCC(O[Si](C)(C)C(C)(C)C)CC1=CC(=O)C1C2CCC2(C)C(O[Si](C)(C)C(C)(C)C)CCC12` (stereo unspecified), the melting point is 99 to 101 °C.

Compound `O=C(O)CC=CC12CC(c3ccccc31)c1ccccc12` yielded a melting point of 166 to 167 °C.

With `O=c1c2c(O)cc(O)cc2ncn1-c1ccc(O)cc1`, the melting point lay in the range of 240 to 245 °C.

For the compound `CN(C)C(=O)c1c(Cl)csc1-c1ncc(C(F)(F)F)cc1Cl`, the melting point was in the range of 85 to 86 °C.

`CC(C)c1ccc(N(Cc2ccc(OCC(F)(F)F)cc2)C(=O)Nc2c(C(C)C)cccc2C(C)C)cc1` gave a melting point of 138 °C.

As for `Oc1cc(N2CCCCC2)c(Cl)cc1CCBr`, the melting point fell in the range of 115 to 116 °C.

On to `Cc1c(NC(=O)CC(C)(C)C)cc2c(c1C)OC(C)(C)C2Cc1ccccc1` (stereo unspecified), for which the melting point is 186 to 187 °C.

Compound `O=C(O)CCCCN1CCC(C(O)(c2ccc(F)cc2)c2ccc(F)cc2)CC1` yielded a melting point of 105 to 107 °C.

As for `COCCNC(=O)c1cc(C)nc(-c2cccc3cc(Cc4cccc(C(F)(F)F)c4)sc23)c1`, the melting point was 115 to 116 °C.

`COc1ccccc1COc1ccc(S(=O)(=O)c2ccc(C)nc2Nc2c(C)cc(C)cc2C)cc1` came in with a melting point of 148 to 150 °C.

Consider `Cc1noc(-c2ccc(Br)c(C)c2)n1`, for which the melting point fell in the range of 75 to 77 °C.

In turn, `O=C(c1ccccc1F)N1C(=O)c2ccccc2S1(=O)=O` showed a melting point of 148 to 151 °C.

Turning to `CCCCCCCCCCCCCCCCCCOc1ccc(C(=O)C=Cc2ccc(SC)cc2)cc1`, the melting point is 104 °C.

`CCC1(CC)NC(=O)C(CC)(CC)N1`: the melting point lay in the range of 68 to 70 °C.

Compound `CN1CCCCC1CCc1ccccc1NC(=O)c1ccc(N)cc1` (stereo unspecified) showed a melting point of 147 to 148 °C.

Compound `N#Cc1cnc2cnc(F)cc2c1Oc1ccc(Cl)cc1F` yielded a melting point of 186 to 188 °C.

Take `CNc1nc(-c2cccc(NC(=O)c3cccnc3N3CCCC3)c2)c2cc(OC)c(OC)cc2n1`: the melting point lay in the range of 135 to 137 °C.

In the case of `Clc1cccc(-c2n[nH]cc2-c2ccnc(NCCc3ccccc3)c2)c1`, the melting point fell in the range of 185 to 186 °C.

Turning to `C=C1Cc2cc3c(cc2C(c2ccc(N(C(C)=O)C(C)=O)cc2)=NN1C(C)=O)OCO3`, the melting point was in the range of 240 to 245 °C.

As to `O=C(C#CCO)c1ccc(F)cc1`, the melting point amounted to 63 °C.

The compound `COc1c(C)cc2c(c1C)C(c1ccc(C(C)C)cc1)C(C)(C)O2` (stereo unspecified) displayed a melting point of 121 to 123 °C.

For the compound `O=C1NCc2c(Oc3ccccc3)cccc2N1Cc1ccccc1`, the melting point was in the range of 171 to 173 °C.

The compound `Cc1cc(C)c(C)c(COc2cccc(-c3coc(C(=O)NNC(=O)c4ccc(O)c(C#N)c4)c3-c3ccccc3)c2)c1C` returned a melting point of 242 to 247 °C.

Consider `CC(C)(C)c1cc(CN)nn1-c1ccc(S(C)(=O)=O)cc1`, for which the melting point lay in the range of 138 to 145 °C.

In turn, `O=C(Nc1cccc(C(F)(F)F)c1)N1CCCCc2cc(Oc3cc(Cl)ncn3)ccc21` gave a melting point of 120 °C.

The compound `CC(=O)c1ccc(-c2ccc(F)cc2)c([N+](=O)[O-])c1` gave a melting point of 88 to 90 °C.

As for `CCC(=NO)c1ccc(Sc2cc(F)cc([C@@]3(OC)CCO[C@@H]3C)c2)cc1` (racemic), the melting point was 113 to 114 °C.

For the compound `COc1ccnc(CSc2nc3cc(-n4ccnc4)c(F)cc3[nH]2)c1`, the melting point is 86 to 87 °C.

Compound `COc1ccc(CS[C@H]2C[C@@H](C(=O)N3CCN(CCO)CC3)N(C(=O)OCc3ccc([N+](=O)[O-])cc3)C2)cc1` returned a melting point of 140 to 141 °C.

The compound `Cc1cc(-c2cc(C(F)F)n3ncc(-c4nc(-c5ccc(N)nc5)no4)c3n2)ccc1Cl` came in with a melting point of 243 °C.

For the compound `O=C(O)c1ccc(-c2coc(-c3ccc(Cl)cc3)n2)cc1`, the melting point is 288 to 289 °C.

Compound `CCCOC12CCC(=O)C3(C)Oc4c(O)ccc5c4C31CCN(CC1CC1)C2C5` (stereo unspecified) came in with a melting point of 184 to 186 °C.

Turning to `CC(C)N1C(=O)c2cnc(-c3ccccc3)nc2Nc2ccccc21`, the melting point is 195 to 196 °C.

On to `O=CCCc1ccc2oc(Cc3ccc4ccccc4c3)nc2c1`, for which the melting point was in the range of 81 to 82 °C.

`Nc1ccc(C(=O)N2Cc3cccn3Cc3ccccc32)cc1`: the melting point is 166 to 168 °C.

Compound `N#Cc1ccc(-c2ccc(OCc3ccccc3)cc2)cc1` yielded a melting point of 150 to 152 °C.

`COc1cc(CCC(=O)CC(=O)c2ccc(F)cc2)ccc1O` returned a melting point of 56 to 57 °C.

For `CNCC(O)C1=CC2(CCCC2)c2ccccc21` (stereo unspecified), the melting point is 75 to 77 °C.

`CCCN1CC(O)c2cc(OC)c(OC)c3c2C1Cc1cc(OC)c(OC)cc1-3` (stereo unspecified) came in with a melting point of 153 to 154 °C.

Compound `CC(C)n1nc(-c2cnc(N)nc2-c2ccccc2C(F)(F)F)ccc1=O` showed a melting point of 160 to 161 °C.

As for `O=C(C1CCN(c2ccncn2)C1)N1CCNCC1` (stereo unspecified), the melting point was in the range of 129 to 131 °C.

In turn, `COc1ccc2c(c1)C(=O)C(Cc1cccc(NS(=O)(=O)C(F)(F)F)c1)CC2` (stereo unspecified) showed a melting point of 152 to 154 °C.

For `CC1=C(Cc2ccc(C(C)C)cc2)C(=O)C2C=CC=CC2C1=O` (stereo unspecified), the melting point was 64 to 65 °C.

As to `O=C(O)c1cccc(-c2ccc3c(c2)N(c2ccc(Cl)cc2Cl)CCO3)c1`, the melting point fell in the range of 222 to 223 °C.

`Cc1ccc(-c2nc3ccc(CN4CCN(C)CC4)cc3[nH]2)cc1C#Cc1ccc(NC2CC2)nn1` had a melting point of 145 to 146 °C.

`N=C(Nc1ccccc1-c1ccccc1)N1CCCC(O)C1` (stereo unspecified): the melting point lay within 144 to 145 °C.

For the compound `CNC(=S)n1nc(N)nc1N`, the melting point lay within 176 to 178 °C.

Consider `O=C(NCCCCCCO)OC1CCN(C(=O)OCc2ccccc2)CC1`, for which the melting point lay in the range of 50 to 52 °C.

For the compound `N=C(NC(=O)NCCCCCCNC(=O)NC(=N)Nc1ccc(Cl)cc1)Nc1ccc(Cl)cc1`, the melting point was in the range of 186 to 190 °C.

In the case of `COc1cc(Nc2nccc(-c3ccc(NC(=O)OC(C)(C)C)cc3)n2)cc(OC)c1OC`, the melting point fell in the range of 158 to 159 °C.

Turning to `Cc1ccccc1C(=S)N1CC1C#N` (stereo unspecified), the melting point is 67 to 69 °C.

`CCOC(=O)c1cnn(C)c1C(=O)Nc1ccn2nc(C(C)C)nc2c1` returned a melting point of 175 to 177 °C.

`Cc1c(C)c2c(c(C)c1N)CC(C)(CN1CCC(OCCCc3ccccc3)CC1)O2` (stereo unspecified) showed a melting point of 53 to 54 °C.

In turn, `N#Cc1cc(C#N)cc(CO)c1` displayed a melting point of 119 to 120 °C.

`COC(=O)Cc1ccccc1OCc1ccc(OCc2nc(-c3ccccc3)sc2C)nc1` gave a melting point of 119 to 120 °C.

`Cc1cc(C(=O)N2Cc3cccn3Cc3ccccc32)ccc1C1=CCCc2ccccc21`: the melting point worked out at 108 °C.

`CCC(O)(c1cc(OC)cc(OCc2ccc3ccccc3c2)c1)c1nccs1` (stereo unspecified) yielded a melting point of 105 °C.

Turning to `CCCCCCCC(=O)NCc1cccc(-c2ccc(CCC(=O)O)cc2)c1`, the melting point lay within 124 to 125 °C.

`O=C(Nc1cccc2c1C(=O)c1c-2n[nH]c1C1CCN(C(=O)C2CCCNC2)CC1)NN1CCOCC1` (stereo unspecified) had a melting point of 169 to 170 °C.

Consider `NC(=O)c1cc([N+](=O)[O-])ccc1C=Cc1ccccc1`, for which the melting point amounted to 270 °C.
